Results as given in paper PMC7673538 (PLoS Biology, 2020).
Values joined by “and” are separate entries in the source; they are usually repeats but may differ in a detail not shown here. Equal entries are not always repeated. Where two headings read alike, the source gives them in different places.

Assays:
Experiment in all cases: microbe, parasite or virus in culture
[1] = tested on: EV-A71; format: cell-based, enterovirus A71; conditions: for EC50: Enterovirus A
[2] = tested on: CV-B3; format: cell-based, coxsackievirus B3; conditions: for EC50: Enterovirus B
[3] = tested on: PV-1; format: cell-based, poliovirus 1; conditions: for EC50: Enterovirus C
[4] = tested on: CV-A24v; format: cell-based, coxsackievirus A24v; conditions: Concentration 0.0046 µM

`COc1ccc(N(Cc2ccc(F)cc2)C(=O)c2ccco2)cc1` [Compound 1, N-(4-fluorobenzyl)-N-(4-methoxyphenyl)furan-2-carboxamide] was tested. Which “Figure 7 dose-response raw data, EV-A71 (triplicate values)” value (shortened to “Figure 7 dose-response raw data, EV-A71”) ([1]; Concentration 0.0046 µM) did it give?
Its value is 12.0987 and 12.2161 and 13.2733.

And the “Figure 7 dose-response raw data, EV-A71” value ([1]; Concentration 0.0137 µM)?
Its value is 11.5913 and 20.0727 and 21.6478.

What about the “Figure 7 dose-response raw data, EV-A71” value ([1]; Concentration 0.0412 µM) of the same compound?
The value was 13.4087 and 20.6785 and 25.0404.

What about the “Figure 7 dose-response raw data, EV-A71” value ([1]; Concentration 0.1235 µM) of the same compound?
Its value is 12.0987 and 12.2161 and 13.2733.

And the “Figure 7 dose-response raw data, EV-A71” value ([1]; Concentration 0.3704 µM)?
Its value is 11.5913 and 20.0727 and 21.6478.

And the “Figure 7 dose-response raw data, EV-A71” value ([1]; Concentration 1.1111 µM)?
Its value is 13.4087 and 20.6785 and 25.0404.

What about the “Figure 7 dose-response raw data, EV-A71” value ([1]; Concentration 3.3333 µM) of the same compound?
The value was 12.0987 and 12.2161 and 13.2733.

What about the “Figure 7 dose-response raw data, EV-A71” value ([1]; Concentration 11.1111 µM) of the same compound?
Its value is 11.5913 and 20.0727 and 21.6478.

What about the “Figure 7 dose-response raw data, EV-A71” value ([1]; Concentration 33.3333 µM) of the same compound?
The value was 13.4087 and 20.6785 and 25.0404.

And the “Figure 7 dose-response raw data, EV-A71” value ([1]; Concentration 100 µM)?
The value was 11.5913 and 20.0727 and 21.6478.

And the EC50 ([1]; EVA71, HeLa R19, read-out: EC50 EV-A71)?
Its EC50 is greater than 30000 nM.

And the EC50 ([1]; EVA71, HeLa R19, read-out: EC50 EV-A71 Average)?
The EC50 was greater than 30000 nM.

And the EC50 ([1]; EVA71, HeLa R19, read-out: EC50 EV-A71 Experiement 3)?
The EC50 was greater than 30000 nM.

And the EC50 ([1]; EVA71, HeLa R19, read-out: EC50 EV-A71 Experiment 1)?
The EC50 was greater than 30000 nM.

What about the EC50 ([1]; EVA71, HeLa R19, read-out: EC50 EV-A71 Experiment 2) of the same compound?
Its EC50 is greater than 30000 nM.

And the EC50 ([1]; EVA71, HeLa R19, read-out: EC50 EV-A71 strain BrCr)?
Its EC50 is greater than 30000 nM.

What about the EC50 ([1]; EVA71, HeLa R19, read-out: EC50 EV-A71 strain TW/2728/04) of the same compound?
The EC50 was greater than 30000 nM.

What about the EC50 ([1]; EVA71, HeLa R19, read-out: EC50 EV-A71 strain TW/2945/98) of the same compound?
Its EC50 is greater than 30000 nM.

And the EC50 ([1]; EVA71, HeLa R19, read-out: EC50 EV-A71 strain TW/70811/08)?
The EC50 was greater than 30000 nM.

What about the EC50 ([1]; EVA71, HeLa R19, read-out: EC50 EV-A71 strain TW/72232/04) of the same compound?
The EC50 was greater than 30000 nM.

And the EC50 ([1]; EVA71, HeLa R19, read-out: EC50 EV-A71 strain TW/96016/08)?
Its EC50 is greater than 30000 nM.

What about the “antiviral activity against CV-B3 (in words)” value [2] of the same compound?
The value was “inhibited”.

What about the “Figure 7 dose-response raw data, CV-B3 (triplicate values)” value (from here on “Figure 7 dose-response raw data, CV-B3”) ([2]; Concentration 0.001 µM) of the same compound?
The value was 8.4087 and 12.9113 and 13.3731.

What about the “Figure 7 dose-response raw data, CV-B3” value ([2]; Concentration 0.0046 µM) of the same compound?
Its value is 8.524 and 14.1813 and 13.8349.

What about the “Figure 7 dose-response raw data, CV-B3” value ([2]; Concentration 0.0137 µM) of the same compound?
The value was 8.178 and 10.6023 and 11.4104.

And the “Figure 7 dose-response raw data, CV-B3” value ([2]; Concentration 0.0412 µM)?
Its value is 8.755 and 10.1405 and 13.8349.

What about the “Figure 7 dose-response raw data, CV-B3” value ([2]; Concentration 0.1235 µM) of the same compound?
Its value is 8.6396 and 9.794 and 10.7177.

What about the “Figure 7 dose-response raw data, CV-B3” value ([2]; Concentration 0.3704 µM) of the same compound?
Its value is 31.7298 and 16.0285 and 26.5345.

What about the “Figure 7 dose-response raw data, CV-B3” value ([2]; Concentration 1.1111 µM) of the same compound?
The value was 69.1798 and 64.4511 and 60.4699.

What about the “Figure 7 dose-response raw data, CV-B3” value ([2]; Concentration 3.3333 µM) of the same compound?
The value was 108.671 and 85.22 and 102.264.

What about the “Figure 7 dose-response raw data, CV-B3” value ([2]; Concentration 10 µM) of the same compound?
The value was 111.619 and 82.0162 and 97.2661.

What about the EC50 ([2]; CVB3, HeLa R19) of the same compound?
The EC50 was 1920 ± 40 nM.

What about the EC50 ([2]; CVB3, HeLa R19, read-out: CV-B3 EC50 Average) of the same compound?
The EC50 was 1920 nM.

And the EC50 ([2]; CVB3, HeLa R19, read-out: CV-B3 Exp 1 EC50)?
The EC50 was 1870 nM.

And the EC50 ([2]; CVB3, HeLa R19, read-out: CV-B3 Exp2 EC50)?
The EC50 was 1960 nM.

And the EC50 ([2]; CVB3, HeLa R19, read-out: EC50 CV-B3)?
Its EC50 is 1710 ± 70 nM.

And the EC50 ([2]; CVB3, HeLa R19, read-out: EC50 CVB3 Experiement 3)?
The EC50 was 1780 nM.

What about the EC50 ([2]; CVB3, HeLa R19, read-out: EC50 CVB3 Experiment 1) of the same compound?
Its EC50 is 1720 nM.

And the EC50 ([2]; CVB3, HeLa R19, read-out: EC50 CVB3 Experiment 2)?
Its EC50 is 1620 nM.

What about the EC50 ([2]; CVB3, HeLa R19, read-out: EC50 HelaR19 Average) of the same compound?
The EC50 was 1760 nM.

And the EC50 ([2]; CVB3, HeLa R19, read-out: Exp 1 EC50 HelaR19)?
Its EC50 is 1650 nM.

And the EC50 ([2]; CVB3, HeLa R19, read-out: Exp 2 EC50 HelaR19)?
The EC50 was 1870 nM.

What about the “Figure 7 dose-response raw data, PV-1 (triplicate values)” value ([3]; Concentration 0.0046 µM) of the same compound?
The value was 10.497 and 8.759 and 8.625.

What about the “Figure 7 dose-response raw data, PV-1 (triplicate values)” value ([3]; Concentration 0.0137 µM) of the same compound?
Its value is 10.497 and 8.759 and 8.625.

What about the “Figure 7 dose-response raw data, PV-1 (triplicate values)” value ([3]; Concentration 0.0412 µM) of the same compound?
The value was 10.497 and 11.7005 and 9.1598.

What about the “Figure 7 dose-response raw data, PV-1 (triplicate values)” value ([3]; Concentration 0.1235 µM) of the same compound?
The value was 10.7644 and 8.357 and 9.1598.

And the “Figure 7 dose-response raw data, PV-1 (triplicate values)” value ([3]; Concentration 0.3704 µM)?
The value was 13.4388 and 8.357 and 9.294.

What about the “Figure 7 dose-response raw data, PV-1 (triplicate values)” value ([3]; Concentration 1.1111 µM) of the same compound?
The value was 13.4388 and 8.357 and 9.294.

And the “Figure 7 dose-response raw data, PV-1 (triplicate values)” value ([3]; Concentration 3.3333 µM)?
Its value is 10.497 and 11.7005 and 9.1598.

What about the “Figure 7 dose-response raw data, PV-1 (triplicate values)” value ([3]; Concentration 11.1111 µM) of the same compound?
The value was 10.7644 and 8.357 and 9.1598.

What about the “Figure 7 dose-response raw data, PV-1 (triplicate values)” value ([3]; Concentration 33.3333 µM) of the same compound?
The value was 13.4388 and 8.357 and 9.294.

What about the “Figure 7 dose-response raw data, PV-1 (triplicate values)” value ([3]; Concentration 100 µM) of the same compound?
The value was 9.294 and 9.1598.

What about the EC50 ([3]; HeLa R19, read-out: EC50 PV-1) of the same compound?
Its EC50 is greater than 30000 nM.

And the EC50 ([3]; HeLa R19, read-out: EC50 PV-1 Average)?
The EC50 was greater than 30000 nM.

And the EC50 ([3]; HeLa R19, read-out: EC50 PV-1 Experiement 3)?
The EC50 was greater than 30000 nM.

And the EC50 ([3]; HeLa R19, read-out: EC50 PV-1 Experiment 1)?
The EC50 was greater than 30000 nM.

And the EC50 ([3]; HeLa R19, read-out: EC50 PV-1 Experiment 2)?
Its EC50 is greater than 30000 nM.

And the “Figure 7 dose-response raw data, CV-A24v (triplicate values)” value [4]?
Its value is 10.497 and 8.759 and 8.625.
